Experimental data taken from the supplement of paper PMC9780213.

Key:
Details in all cases: treatment time: 24 h
U2OS-LMNB1-TUBA1B-ACTB = assay: cell count relative to DMSO control (panel C1, DRAQ5/ER stain) (fraction of control); higher = more cells (less toxicity)
Procedure: (§1)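 U2OS-derived cells in 384-well plates were treated for 24 h with a 7-point 2-fold dilution series (top dose 20 µM for most compounds; final max DMSO 1%), then fixed, stained in four marker panels and imaged on a Cellomics ArrayScan. Cell count per treatment (three replicate plates merged) is given as a fraction of DMSO control. Panel A used parental U2OS, panel B U2OS-mOrange2-Peroxisome, panel C1 U2OS-LMNB1-TUBA1B-ACTB (DRAQ5 nuclei).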

U2OS-mOrange2-Peroxisome = assay: cell count relative to DMSO control (panel B, lysosome/peroxisome/lipid stain) (fraction of control); higher = more cells (less toxicity)
Procedure: as §1

U2OS = assay: cell count relative to DMSO control (panel A, nuclei/RNA/PMG/mitochondria stain) (fraction of control); higher = more cells (less toxicity)
Procedure: as §1

COc1cccc2c1C(=O)c1c(O)c3c(c(O)c1C2=O)C[C@@](O)(C(C)=O)C[C@@H]3O[C@H]1C[C@H](N)[C@H](O)[C@H](C)O1 [daunorubicin]
cell count (U2OS-LMNB1-TUBA1B-ACTB; 0.07812 µM): 0.953 | cell count (U2OS-LMNB1-TUBA1B-ACTB; 0.15625 µM): 0.99 | cell count (U2OS-LMNB1-TUBA1B-ACTB; 0.3125 µM): 1.02 | cell count (U2OS-LMNB1-TUBA1B-ACTB; 0.625 µM): 0.912 | cell count (U2OS-LMNB1-TUBA1B-ACTB; 1.25 µM): 0.645 | cell count (U2OS-LMNB1-TUBA1B-ACTB; 2.5 µM): 0.613 | cell count (U2OS-LMNB1-TUBA1B-ACTB; 5 µM): 0.472 | cell count (U2OS-mOrange2-Peroxisome; 0.07812 µM): 0.537 | cell count (U2OS-mOrange2-Peroxisome; 0.15625 µM): 0.529 | cell count (U2OS-mOrange2-Peroxisome; 0.3125 µM): 0.527 | cell count (U2OS-mOrange2-Peroxisome; 0.625 µM): 0.605 | cell count (U2OS-mOrange2-Peroxisome; 1.25 µM): 0.618 | cell count (U2OS-mOrange2-Peroxisome; 2.5 µM): 0.398 | cell count (U2OS-mOrange2-Peroxisome; 5 µM): 0.152 | cell count (U2OS; 0.07812 µM): 0.92 | cell count (U2OS; 0.15625 µM): 0.928 | cell count (U2OS; 0.3125 µM): 0.96 | cell count (U2OS; 0.625 µM): 0.829 | cell count (U2OS; 1.25 µM): 0.457 | cell count (U2OS; 2.5 µM): 0.376 | cell count (U2OS; 5 µM): 0.183

CO[C@H]1C[C@@H]2CC[C@@H](C)[C@@](O)(O2)C(=O)C(=O)N2CCCC[C@H]2C(=O)O[C@H]([C@H](C)C[C@@H]2CC[C@@H](OP(C)(C)=O)[C@H](OC)C2)CC(=O)[C@H](C)/C=C(\C)[C@@H](O)[C@@H](OC)C(=O)[C@H](C)C[C@H](C)/C=C/C=C/C=C/1C [deforolimus]
cell count (U2OS-LMNB1-TUBA1B-ACTB; 0.07812 µM): 0.878 | cell count (U2OS-LMNB1-TUBA1B-ACTB; 0.15625 µM): 0.753 | cell count (U2OS-LMNB1-TUBA1B-ACTB; 0.3125 µM): 0.625 | cell count (U2OS-LMNB1-TUBA1B-ACTB; 0.625 µM): 0.644 | cell count (U2OS-LMNB1-TUBA1B-ACTB; 1.25 µM): 0.471 | cell count (U2OS-LMNB1-TUBA1B-ACTB; 2.5 µM): 0.438 | cell count (U2OS-LMNB1-TUBA1B-ACTB; 5 µM): 0.373 | cell count (U2OS-mOrange2-Peroxisome; 0.07812 µM): 0.782 | cell count (U2OS-mOrange2-Peroxisome; 0.15625 µM): 0.674 | cell count (U2OS-mOrange2-Peroxisome; 0.3125 µM): 0.595 | cell count (U2OS-mOrange2-Peroxisome; 0.625 µM): 0.61 | cell count (U2OS-mOrange2-Peroxisome; 1.25 µM): 0.485 | cell count (U2OS-mOrange2-Peroxisome; 2.5 µM): 0.385 | cell count (U2OS-mOrange2-Peroxisome; 5 µM): 0.364 | cell count (U2OS; 0.07812 µM): 0.964 | cell count (U2OS; 0.15625 µM): 0.74 | cell count (U2OS; 0.3125 µM): 0.655 | cell count (U2OS; 0.625 µM): 0.557 | cell count (U2OS; 1.25 µM): 0.504 | cell count (U2OS; 2.5 µM): 0.582 | cell count (U2OS; 5 µM): 0.382

CNCCCN1c2ccccc2CCc2ccccc21 [desipramine]
cell count (U2OS-LMNB1-TUBA1B-ACTB; 0.3125 µM): 0.972 | cell count (U2OS-LMNB1-TUBA1B-ACTB; 0.625 µM): 0.817 | cell count (U2OS-LMNB1-TUBA1B-ACTB; 1.25 µM): 0.772 | cell count (U2OS-LMNB1-TUBA1B-ACTB; 2.5 µM): 0.652 | cell count (U2OS-LMNB1-TUBA1B-ACTB; 5 µM): 0.595 | cell count (U2OS-LMNB1-TUBA1B-ACTB; 10 µM): 0.32 | cell count (U2OS-LMNB1-TUBA1B-ACTB; 20 µM): 0.333 | cell count (U2OS-mOrange2-Peroxisome; 0.3125 µM): 0.62 | cell count (U2OS-mOrange2-Peroxisome; 0.625 µM): 0.64 | cell count (U2OS-mOrange2-Peroxisome; 1.25 µM): 0.617 | cell count (U2OS-mOrange2-Peroxisome; 2.5 µM): 0.571 | cell count (U2OS-mOrange2-Peroxisome; 5 µM): 0.15 | cell count (U2OS-mOrange2-Peroxisome; 10 µM): 0.115 | cell count (U2OS-mOrange2-Peroxisome; 20 µM): 0.0511 | cell count (U2OS; 0.3125 µM): 0.822 | cell count (U2OS; 0.625 µM): 0.55 | cell count (U2OS; 1.25 µM): 0.489 | cell count (U2OS; 2.5 µM): 0.481 | cell count (U2OS; 5 µM): 0.379 | cell count (U2OS; 10 µM): 0.243 | cell count (U2OS; 20 µM): 0.189

C[C@H]1O[C@@H](O[C@H]2[C@@H](O)C[C@H](O[C@H]3[C@@H](O)C[C@H](O[C@H]4CC[C@@]5(C)[C@H](CC[C@@H]6[C@@H]5CC[C@]5(C)[C@@H](C7=CC(=O)OC7)CC[C@]65O)C4)O[C@@H]3C)O[C@@H]2C)C[C@H](O)[C@@H]1O [digitoxin]
cell count (U2OS-LMNB1-TUBA1B-ACTB; 0.07812 µM): 0.905 | cell count (U2OS-LMNB1-TUBA1B-ACTB; 0.15625 µM): 1.04 | cell count (U2OS-LMNB1-TUBA1B-ACTB; 0.3125 µM): 1.03 | cell count (U2OS-LMNB1-TUBA1B-ACTB; 0.625 µM): 1.05 | cell count (U2OS-LMNB1-TUBA1B-ACTB; 1.25 µM): 1.02 | cell count (U2OS-LMNB1-TUBA1B-ACTB; 2.5 µM): 1.11 | cell count (U2OS-LMNB1-TUBA1B-ACTB; 5 µM): 1.12 | cell count (U2OS-mOrange2-Peroxisome; 0.07812 µM): 1.24 | cell count (U2OS-mOrange2-Peroxisome; 0.15625 µM): 1.23 | cell count (U2OS-mOrange2-Peroxisome; 0.3125 µM): 0.888 | cell count (U2OS-mOrange2-Peroxisome; 0.625 µM): 1.04 | cell count (U2OS-mOrange2-Peroxisome; 1.25 µM): 1.01 | cell count (U2OS-mOrange2-Peroxisome; 2.5 µM): 1.09 | cell count (U2OS-mOrange2-Peroxisome; 5 µM): 1.02 | cell count (U2OS; 0.07812 µM): 1.07 | cell count (U2OS; 0.15625 µM): 1.02 | cell count (U2OS; 0.3125 µM): 1.04 | cell count (U2OS; 0.625 µM): 1.11 | cell count (U2OS; 1.25 µM): 1.13 | cell count (U2OS; 2.5 µM): 1.09 | cell count (U2OS; 5 µM): 1.11
